# Structures can show the parent of a compound that is named as a salt.
# Test system: Acinetobacter baumannii ATCC17978
# Assay: 90% growth inhibitory concentration (IC90) determination, antimicrobial susceptibility testing
# Assay type: cell-based
# Details: ATCC17978, 90% growth inhibition, Iso-Sensitest broth, OD 600 nm over 16 h, 35±2° C., read-out: ATCC 17978 IC90
# Experimental: Antimicrobial Susceptibility Testing:
# 90% Growth Inhibitory Concentration (IC90) Determination
# The in vitro antimicrobial activity of the compounds was determined according to the following procedure:
# The assay used a 10-points Iso-Sensitest broth medium to measure quantitatively the in vitro activity of the compounds against Acinetobacter baumannii ATCC17961 and ATCC17978.
# Stock compounds in DMSO were serially twofold diluted (e.g. range from 50 to 0.097 μM final concentration) in 384 wells microtiter plates and inoculated with 49 μl the bacterial suspension in Iso-Sensitest medium to have a final cell concentration of ˜5×10^(5) CFU/ml in a final volume/well of 50 ul/well. Microtiter plates were incubated at 35±2° C.
# Bacterial cell growth was determined with the measurement of optical density at λ=600 nm each minutes over a time course of 16 h. Growth inhibition was calculated during the logarithmic growth of the bacterial cells with determination of the concentration inhibiting 50% (IC50) and 90% (IC90) of the growth.
# Table 1 provides the 90% growth inhibitory concentrations (IC90) in micromoles per liter of the compounds of present invention obtained against the strain Acinetobacter baumannii ATCC17978.
row,IC90,Molecule
1,2130 nM,"Cc1cc(Nc2nccn3c(-c4ccc(OCC#CCN)cc4)cnc23)ccc1C(=O)N(C)CCC1CC[N+](C)(C)CC1 [Example 5, 4-[[3-[4-(4-aminobut-2-ynoxy)phenyl]imidazo[1,2-a]pyrazin-8-yl]amino]-N-[2-(1,1-dimethylpiperidin-1-ium-4-yl)ethyl]-N,2-dimethyl-benzamide Formate]"
2,446 nM,"Cc1cc(Nc2nccn3c(-c4ccc(OC(F)F)cc4)cnc23)ccc1C(=O)N(C)CCC1CC[N+](C)(C)CC1 [Example 19, 4-(2-(4-((3-(4-(difluoromethoxy)phenyl)imidazo[1,2-a]pyrazin-8-yl)amino)-N,2-dimethylbenzamido)ethyl)-1,1-dimethylpiperidin-1-ium Formate]"
3,958 nM,"CC[N+]1(C)CCC(CCNC(=O)c2ccc(Nc3nccn4c(-c5ccc(OC)cc5)cnc34)cc2C)CC1 (stereo not shown) [Example 20, 1-ethyl-4-(2-(4-((3-(4-methoxyphenyl)imidazo[1,2-a]pyrazin-8-yl)amino)-2-methylbenzamido)ethyl)-1-methylpiperidin-1-ium Formate]"
4,260 nM,"COc1ccc(-c2cnc3c(Nc4ccc(C(=O)N(C)CCC5CC[N+](C)(C)CC5)c(C)c4)nccn23)c(F)c1F [Example 22, 4-[[3-(2,3-Difluoro-4-methoxy-phenyl)imidazo[1,2-a]pyrazin-8-yl]amino]-N-[2-(1,1-dimethylpiperidin-1-ium-4-yl)ethyl]-N,2-dimethyl-benzamide 2,2,2-trifluoroacetate]"
5,742 nM,"CC[N+]1(CC)CCC(CCN(C)C(=O)c2ccc(Nc3nccn4c(-c5ccc(OC(F)F)cc5)cnc34)cc2C)CC1 [Example 24, 4-(2-(4-((3-(4-(difluoromethoxy)phenyl)imidazo[1,2-a]pyrazin-8-yl)amino)-N,2-dimethylbenzamido)ethyl)-1,1-diethylpiperidin-1-ium Formate]"

# More lines, now with the values behind:
row,Molecule,IC90
1,"Cc1cc(Nc2nccn3c(-c4ccc(OC(F)F)cc4)cnc23)ccc1C(=O)NCCOCC[N+](C)(C)C [Example 1, 2-(2-(4-((3-(4-(difluoromethoxy)phenyl)imidazo[1,2-a]pyrazin-8-yl)amino)-2-methylbenzamido)ethoxy)-N,N,N-trimethylethanaminium Iodide]",658 nM
2,"CCc1cc(Nc2nccn3c(-c4ccc(OC)c(F)c4F)cnc23)ccc1C(=O)NCCOCC[N+](C)(C)C [Example 13, 2-(2-(4-((3-(2,3-difluoro-4-methoxyphenyl)imidazo[1,2-a]pyrazin-8-yl)amino)-2-ethylbenzamido)ethoxy)-N,N,N-trimethylethanaminium Formate]",109 nM
3,"COc1ccc(-c2cnc3c(Nc4ccc(C(=O)N5CCN(CC[N+](C)(C)C)CC5)c(Br)c4)nccn23)cc1F [Example 14, 2-[4-[2-Bromo-4-[[3-(3-fluoro-4-methoxy-phenyl)imidazo[1,2-a]pyrazin-8-yl]amino]benzoyl]piperazin-1-yl]ethyl-trimethyl-ammonium 2,2,2-trifluoroacetate]",476 nM
4,"C#CCOc1ccc(-c2cnc3c(Nc4ccc(C(=O)NCCOCC[N+](C)(C)C)c(CC)c4)nccn23)c(F)c1F [Example 15, 2-[2-[[4-[[3-(2,3-Difluoro-4-prop-2-ynoxy-phenyl)imidazo[1,2-a]pyrazin-8-yl]amino]-2-ethyl-benzoyl]amino]ethoxy]ethyl-trimethyl-ammonium 2,2,2-trifluoroacetate]",238 nM
5,"COc1ccc(-c2cnc3c(Nc4ccc5c(c4)CCN(CCOCC[N+](C)(C)C)C5=O)nccn23)c(F)c1F [Example 16, 2-[2-[6-[[3-(2,3-difluoro-4-methoxy-phenyl)imidazo[1,2-a]pyrazin-8-yl]amino]-1-oxo-3,4-dihydroisoquinolin-2-yl]ethoxy]ethyl-trimethyl-ammonium Formate]",396 nM
6,"C[N+]1(CCOCCNC(=O)c2ccc(Nc3nccn4c(-c5ccc(OCC#N)c(F)c5F)cnc34)cc2Cl)CCNC(C(=O)O)C1 (stereo not shown) [Example 17, 4-[2-[2-[[2-chloro-4-[[3-[4-(cyanomethoxy)-2,3-difluoro-phenyl]imidazo[1,2-a]pyrazin-8-yl]amino]benzoyl]amino]ethoxy]ethyl]-4-methyl-piperazin-4-ium-2-carboxylic acid Formate]",1290 nM
7,"COc1ccc(-c2cnc3c(Nc4ccc(C(=O)NCCC5CC[N+](C)(CC(=O)O)CC5)c(C)c4)nccn23)cc1 (stereo not shown) [Example 23, 1-(carboxymethyl)-4-(2-(4-((3-(4-methoxyphenyl)imidazo[1,2-a]pyrazin-8-yl)amino)-2-methylbenzamido)ethyl)-1-methylpiperidin-1-ium Formate]",2220 nM
8,"Cc1cc(Nc2nccn3c(-c4ccc(OC(F)F)cc4)cnc23)ccc1C(=O)NCCCCCC[N+](C)(C)C [Example 25, 6-(4-((3-(4-(difluoromethoxy)phenyl)imidazo[1,2-a]pyrazin-8-yl)amino)-2-methylbenzamido)-N,N,N-trimethylhexan-1-aminium Formate]",591 nM

# Same assay, conditions: ATCC17978, 16 h, read-out: ATCC 17978 IC90
row,Molecule,IC90
1,"Cc1cc(Nc2nccn3c(-c4ccc(OCC#N)c(F)c4F)cnc23)ccc1C(=O)N1CCC(CC[N+](C)(C)C)CC1 [Example 2, 2-[1-[4-[[3-[4-(Cyanomethoxy)-2,3-difluoro-phenyl]imidazo[1,2-a]pyrazin-8-yl]amino]-2-methyl-benzoyl]-4-piperidyl]ethyl-trimethyl-ammonium Formate]",214 nM
2,"COc1ccc(-c2cnc3c(Nc4ccc(C(=O)N(C)CCN5CC[N+](C)(C)CC5)c(Cl)c4)nccn23)c(F)c1F [Example 21, 2-chloro-4-[[3-(2,3-difluoro-4-methoxy-phenyl)imidazo[1,2-a]pyrazin-8-yl]amino]-N-[2-(4,4-dimethylpiperazin-4-ium-1-yl)ethyl]-N-methyl-benzamide 2,2,2-trifluoroacetate]",480 nM

# Test system: Acinetobacter baumannii ATCC17961
# Assay: as above
# Assay type: cell-based
# Details: 90% growth inhibition, Iso-Sensitest broth, OD 600 nm over 16 h, 35±2° C.; read-out: ATCC 17961 IC90
# How it was run: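 Twofold serial dilutions (e.g. 50 to 0.097 μM final) in Iso-Sensitest broth, inoculated at ~5×10^5 CFU/ml and incubated at 35±2 °C for 16 h with OD600 read every minute. IC90 taken from growth inhibition during the logarithmic phase.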
row,Molecule,IC90
1,"Methyl 2-[1-[1-(azetidin-3-ylmethyl)-1-methyl-piperidin-1-ium-4-carbonyl]-4-piperidyl]-2-[[4-[[3-(2,3-difluoro-4-methoxy-phenyl)imidazo[1,2-a]pyrazin-8-yl]amino]-2-ethyl-benzoyl]amino]acetate formate 2,2,2-trifluoroacetate (Mixed Salt) [Example 125]",1550 nM

# Same assay, conditions: Acinetobacter baumannii, ATCC17961, 16 h, 90% growth inhibition, Iso-Sensitest broth, OD 600 nm over 16 h, 35±2° C.; read-out: ATCC 17961 IC90
row,IC90,Molecule
1,169 nM,"CCc1cc(Nc2nccn3c(-c4ccc(OC)c(F)c4F)cnc23)ccc1C(=O)NCC1CC[N+](CCO)(CC2CNC2)CC1 (stereo not shown) [Example 141, N-[[1-(Azetidin-3-ylmethyl)-1-(2-hydroxyethyl)piperidin-1-ium-4-yl]methyl]-4-[[3-(2,3-difluoro-4-methoxy-phenyl)imidazo[1,2-a]pyrazin-8-yl]amino]-2-ethyl-benzamide 2,2,2-trifluoroacetate]"
2,336 nM,"CCc1cc(Nc2nccn3c(-c4ccc(OC)c(F)c4F)cnc23)ccc1C(=O)NCC1CC[N+](C)(CC2CCCN2)CC1 (stereo not shown) [Example 142, 4-[[3-(2,3-Difluoro-4-methoxy-phenyl)imidazo[1,2-a]pyrazin-8-yl]amino]-2-ethyl-N-[[1-methyl-1-(pyrrolidin-2-ylmethyl)piperidin-1-ium-4-yl]methyl]benzamide 2,2,2-trifluoroacetate]"
3,609 nM,"CCc1cc(Nc2nccn3c(-c4ccc(OC)c(F)c4F)cnc23)ccc1C(=O)NCC1CC[N+](CC)(CC2CNC2)CC1 (stereo not shown) [Example 143, N-[[1-(Azetidin-3-ylmethyl)-1-ethyl-piperidin-1-ium-4-yl]methyl]-4-[[3-(2,3-difluoro-4-methoxy-phenyl)imidazo[1,2-a]pyrazin-8-yl]amino]-2-ethyl-benzamide Formate]"

# The remaining lines, values behind:
row,Molecule,IC90
1,"CCc1cc(Nc2nccn3c(-c4ccc(OC)c(F)c4F)cnc23)ccc1C(=O)NCCC[N+](C)(CC1CNC1)CC1CNC1 [Example 139, Bis(azetidin-3-ylmethyl)-[3-[[4-[[3-(2,3-difluoro-4-methoxy-phenyl)imidazo[1,2-a]pyrazin-8-yl]amino]-2-ethyl-benzoyl]amino]propyl]-methyl-ammonium bis(2,2,2-trifluoroacetate)]",4820 nM
2,"CCc1cc(Nc2nccn3c(-c4ccc(Oc5ccccc5)c(F)c4F)cnc23)ccc1C(=O)NCC1CC[N+](C)(CC2CCNC2)CC1 (stereo not shown) [Example 145, 4-[[3-(2,3-Difluoro-4-phenoxy-phenyl)imidazo[1,2-a]pyrazin-8-yl]amino]-2-ethyl-N-[[1-methyl-1-(pyrrolidin-3-ylmethyl)piperidin-1-ium-4-yl]methyl]benzamide Formate]",1780 nM

# Same assay, conditions: Acinetobacter baumannii, ATCC17961, 16 h, read-out: ATCC 17961 IC90
row,Molecule,IC90
1,"CCc1cc(Nc2nccn3c(-c4ccc(OC)c(F)c4F)cnc23)ccc1C(=O)NCC1CC[N+](C)(Cc2cccnc2)CC1 (stereo not shown) [Example 140, 4-[[3-(2,3-difluoro-4-methoxy-phenyl)imidazo[1,2-a]pyrazin-8-yl]amino]-2-ethyl-N-[[1-methyl-1-(3-pyridylmethyl)piperidin-1-ium-4-yl]methyl]benzamide; 2,2,2-trifluoroacetate]",115 nM

# Reference: patent publication US20230141600A1, “IMIDAZOPYRAZINE DERIVATIVES” (priority 2020, published 2023)
